Reference: article PMC7044277 (Nature Communications, 2020)
“And” between values parts separate entries of the source, which are not always exact repeats. Identical values can stand only once.

Columns and labels:
Type in all cases: cell-based
[1] = target: T1, 320 non-olfactory GPCRs (Homo sapiens, UniProt O00254)
T1 construct: expressed in transfected cells; host or cells: HTLA cells

[2] = target: T2, 320 non-olfactory GPCRs (Homo sapiens, UniProt O00421)
T2 construct: expressed in transfected cells; host or cells: HTLA cells

[3] = target: T3, 320 non-olfactory GPCRs (Homo sapiens, UniProt P47901)
T3 construct: expressed in transfected cells; host or cells: HTLA cells

[4] = target: T4, 320 non-olfactory GPCRs (Homo sapiens, UniProt Q5T601)
T4 construct: expressed in transfected cells; host or cells: HTLA cells
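Further: compound tested at 1 µM final concentration.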

T4 sequence (Q5T601 20-910): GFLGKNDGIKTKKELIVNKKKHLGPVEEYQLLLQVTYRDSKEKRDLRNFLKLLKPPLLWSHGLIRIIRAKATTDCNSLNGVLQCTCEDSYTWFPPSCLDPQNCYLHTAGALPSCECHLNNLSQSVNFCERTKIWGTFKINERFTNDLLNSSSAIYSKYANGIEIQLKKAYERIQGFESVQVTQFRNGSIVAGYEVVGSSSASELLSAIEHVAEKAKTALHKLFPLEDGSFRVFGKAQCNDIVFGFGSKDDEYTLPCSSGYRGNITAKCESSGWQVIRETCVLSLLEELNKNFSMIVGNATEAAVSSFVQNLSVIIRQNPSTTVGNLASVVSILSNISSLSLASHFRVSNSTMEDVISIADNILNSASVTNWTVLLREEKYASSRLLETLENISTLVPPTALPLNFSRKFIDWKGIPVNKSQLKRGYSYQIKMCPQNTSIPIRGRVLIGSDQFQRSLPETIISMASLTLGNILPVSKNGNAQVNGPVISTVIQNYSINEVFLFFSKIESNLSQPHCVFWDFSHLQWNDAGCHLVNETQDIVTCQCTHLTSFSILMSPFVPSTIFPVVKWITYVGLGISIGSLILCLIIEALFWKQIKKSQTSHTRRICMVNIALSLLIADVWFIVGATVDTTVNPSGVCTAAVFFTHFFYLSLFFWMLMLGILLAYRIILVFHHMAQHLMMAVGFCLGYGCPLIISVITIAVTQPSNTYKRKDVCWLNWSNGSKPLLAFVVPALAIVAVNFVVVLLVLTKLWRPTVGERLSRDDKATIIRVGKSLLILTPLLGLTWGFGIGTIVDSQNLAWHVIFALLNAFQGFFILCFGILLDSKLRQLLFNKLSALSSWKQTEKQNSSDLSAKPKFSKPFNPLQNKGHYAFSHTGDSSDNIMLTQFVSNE
T1 sequence (O00254 22-374): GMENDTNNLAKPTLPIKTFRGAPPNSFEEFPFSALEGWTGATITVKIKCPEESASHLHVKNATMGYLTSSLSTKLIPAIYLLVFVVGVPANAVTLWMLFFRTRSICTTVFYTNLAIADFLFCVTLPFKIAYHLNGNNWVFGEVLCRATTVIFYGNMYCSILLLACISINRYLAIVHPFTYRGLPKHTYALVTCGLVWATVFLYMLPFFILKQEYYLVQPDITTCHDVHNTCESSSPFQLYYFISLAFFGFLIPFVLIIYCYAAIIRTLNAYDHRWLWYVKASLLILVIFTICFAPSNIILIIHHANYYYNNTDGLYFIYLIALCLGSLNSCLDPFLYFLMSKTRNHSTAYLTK
T3 sequence (P47901 whole entry): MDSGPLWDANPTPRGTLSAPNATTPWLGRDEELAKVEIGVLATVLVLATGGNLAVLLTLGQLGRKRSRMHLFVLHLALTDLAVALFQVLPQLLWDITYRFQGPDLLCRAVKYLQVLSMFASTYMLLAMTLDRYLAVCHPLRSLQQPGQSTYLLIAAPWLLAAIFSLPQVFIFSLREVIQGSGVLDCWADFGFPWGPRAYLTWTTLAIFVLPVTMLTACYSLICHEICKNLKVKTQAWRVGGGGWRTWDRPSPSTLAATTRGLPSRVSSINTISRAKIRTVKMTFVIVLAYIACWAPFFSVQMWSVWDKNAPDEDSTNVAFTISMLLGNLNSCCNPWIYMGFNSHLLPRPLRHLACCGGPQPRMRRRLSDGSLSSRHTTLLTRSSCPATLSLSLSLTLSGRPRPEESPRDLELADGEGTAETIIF
T2 sequence (O00421 whole entry): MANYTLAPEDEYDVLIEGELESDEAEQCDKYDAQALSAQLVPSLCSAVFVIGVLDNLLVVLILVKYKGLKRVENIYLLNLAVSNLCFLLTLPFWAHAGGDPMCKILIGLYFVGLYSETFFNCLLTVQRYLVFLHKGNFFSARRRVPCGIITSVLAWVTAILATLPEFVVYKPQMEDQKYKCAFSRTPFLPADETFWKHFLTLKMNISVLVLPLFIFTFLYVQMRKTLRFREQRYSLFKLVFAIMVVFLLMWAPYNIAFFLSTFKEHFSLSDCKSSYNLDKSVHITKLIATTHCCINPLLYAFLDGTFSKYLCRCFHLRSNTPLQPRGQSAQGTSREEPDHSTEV

For `CCOc1cccc2cc(C(C)NCC3(O)CCCCC3)oc12` (stereo not shown) [O4LE6], the “Fold of Basal” value [1] was 0.8171 and 1.363 and 1.064 and 0.8535, the “Fold of Basal” value [2] was 1.0982 and 0.8519 and 0.828 and 1.211 and the “Fold of Basal” value [3] was 1.0215 and 1.01 and 1.094 and 0.8472. The “Fold of Basal” value [4] was 0.7534 and 0.5781 and 0.7634.
